Among the data in patent US20230242526A1 (Zentaur Therapeutics International Limited, priority 2020, published 2023) are IC50 and half-life values, retold here.

Series [1] deals with human breast squamous HCC1806 cell line. The experiment in a line: CyQUANT Direct cell proliferation assay, HCC1806. In kind it is cell-based. To be noted: HCC1806, 168 h, 7 days. The source says: (§1) The human ovarian carcinoma OVCAR3 cell line (ATCC HTB-161™) or human breast squamous HCC1806 cell line (ATCC CRL 2335) were obtained from American Type Culture Collection (ATCC), and maintained in culture media according to the supplier's specification.
(§2) The CyQUANT® Direct Cell Proliferation Assay Kit (Invitrogen™, catalog No. G35012) was utilized to test the inhibitory activities of the CDK2 inhibitors described in this disclosure against OVCAR3 or HCC1806 tumor cells.
(§3) CyQUANT® Direct Cell Proliferation Assay: The spent medium from the purchased tumor cell culture plate was removed and the tumor cells were washed with PBS buffer twice. Trypsin (VWR catalog No. 0458-25G) was added to digest the tumor cells until tumor cells appeared round shaped and to dissociate adherent cells from the plate wall in which they are being cultured. Then RPMI-1640 media (HCC1806, Gibco™ catalog No, A10491-01) with 10% fetal bovine serum (FBS) (Hyclone™ catalog No. SV30160.03), or RPMI-1640 media (OVCAR-3, Gibco™ catalog No. 10370-021) with 20% FBS and 0.01 mg/mL insulin was added to stop the trypsin digestion reaction. The tumor cells were lightly agitated with a liquid transfer pipette to cause tumor cells suspended in the culture media. The cells were counted. The complete medium was used to prepare tumor cell suspension.
(§4) OVCAR3 or HCC1806 cells were seeded at 40 μL/well in 384-well plates in growth media containing FBS and cultured 24 hours in the incubator at 37° C., 5% CO2. […] Compound solutions were added by Agilent Bravo liquid handler. […] The control wells contained the growth medium having 0.1% DMSO. Cells were incubated at 37° C., 5% CO2 for 7 days.
(§5) CYQUANT Direct Cell Proliferation Assay (Molecular Probes, Eugene, Oreg.) was then performed following manufacturer's instructions to prepare the detection reagents. 50 μL of detection reagent was aliquot and added to each well and the cells were incubated at 37° C. for 1 hr.
(§6) The cell culture plates were placed on TECAN M1000 microplate reader to detect the fluorescence intensity at 508 nm excitation and 527 nm emission wavelengths. Graphpad Prism 6.0 software was used for data processing, preparing cell growth curve, calculating percentage inhibition on cell growth. IC50 values were calculated by concentration-response curve fitting utilizing a four-parameter analytical method using GraphPad Prism software.

Series [2] relates to human ovarian carcinoma OVCAR3 cell line. The experiment in a line: CyQUANT Direct cell proliferation assay, OVCAR-3. To be noted: OVCAR-3, 168 h, 7 days. The series is classed as cell-based.
Description: as §1, §2, §3, §4, §5, §6

Series [3] addresses CDK9/Cyclin T1 (Homo sapiens, UniProt P50750). The series can be described thus: CDK9/Cyclin T1 kinase assay. The series is classed as biochemical. The method, then: (1). Recombinant enzymes CDK1, CDK2, CDK4, CDK6, CDK9, cyclin B1, cyclin A2, cyclin D3, cyclin E1, cyclin T1 were cloned and purified at Wuxi Biortus Biochemistry Co. Ltd.
(8) Peptide substrate-CDK9 (Ahx-GSRTPMY-NH2, Scilight-Peptide, Cat. C0769102).
The test compounds were dissolved and diluted in DMSO. A stock DMSO solution of the test compound of the invention was prepared by dissolving the compound in DMSO to form a 10 mM solution.
2 μL of testing compound solutions and 5 μL of enzyme solution were added into the 384-well microplate followed by a 10 minute incubation. The reaction was then initiated by the addition of 5 μL of peptide substrate and ATP mixture solution and incubated at 27° C. for 30 minutes. The enzyme reaction in each well was terminated by adding 4 μL of 120 mM EDTA solution. Each assay was carried out in duplicates.
DMSO was used as negative control (0%) for enzyme activity. 20 μM Staurosporine was used as positive control (100%) for enzyme activity.
Plates were read for fluorescence on a Caliper EZ Reader II by separating the fluorescent labeled substrate from the enzyme phosphorylation product by electrophoresis. Data were collected and analyzed using GraphPad Prism version 6.0 software.
Dose-response curves were plotted from inhibition data generated, each in duplicate, from 10 point serial dilutions of inhibitory compounds. Concentration of compound was plotted against % kinase activity. To generate IC50 values, the dose-response curves were then fitted to a standard sigmoidal curve and IC50 values were derived by nonlinear regression analysis.

Series [4] is described as follows: in vitro. The following applies: microsomes. The protocol: (§7) Human liver microsomes (cat. No. 452161), mouse liver microsomes (cat. No. 452701), were purchased from Corning.
(§8) Samples were analyzed using LC-MS/MS using a SCIEX API 4000 mass spectrometer coupled with Agilent HPLC analytical system. After separation on a ZORBAX XDB-C18 column (5 μm, 50×2.1 mm, column No. 50-282) using an acetonitrile-water gradient system, peaks were analyzed by mass spectroscopy (MS) using ESI ionization in Q1 and Q3 scan mode.
(§9) The LC and MS are all controlled by Analyst software.
(§10) The liver microsomes were incubated with 1.0 μM of the testing compound at 37° C. The incubation mixture contained 100 mM PBS buffer (pH=7.4), 3 mM MgCl2 and 1 mM NADPH. The concentration of liver microsome in the incubation mixture was 0.5 mg/mL for testing compound, and 0.2 mg/mL for MDZ and the total volume is 0.2 mL. […] Aliquots were withdrawn at time points of 0 min, 5 min and 20 min for MDZ. The reactions were terminated by transferring the aliquots to a methanol solution containing the internal standard […] for analytical quantification. The quenched samples were analyzed by LC-MS/MS. The incubations were carried out in duplicates. The metabolic stability of the testing compounds by the liver microsomes of human and mice is expressed as elimination half-life (t1/2). The results are shown as the means of duplicate determinations±SD.

Series [5] can be described thus: in vitro. The following applies: microsomes. The method, then:
as §7, §8, §9, §10
The source holds these as a separate data set.

CDK9/Cyclin T1, sequence (P50750 whole entry): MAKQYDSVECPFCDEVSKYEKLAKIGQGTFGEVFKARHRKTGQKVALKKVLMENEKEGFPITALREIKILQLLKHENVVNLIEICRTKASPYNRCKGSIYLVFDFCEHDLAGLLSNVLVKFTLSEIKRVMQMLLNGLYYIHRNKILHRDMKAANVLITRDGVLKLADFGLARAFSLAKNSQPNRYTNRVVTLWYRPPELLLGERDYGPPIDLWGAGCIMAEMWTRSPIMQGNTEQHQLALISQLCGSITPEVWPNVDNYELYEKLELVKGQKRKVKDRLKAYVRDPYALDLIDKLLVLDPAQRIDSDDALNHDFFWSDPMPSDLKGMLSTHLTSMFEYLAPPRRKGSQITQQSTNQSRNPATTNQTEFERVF
CDK9/Cyclin T1, sequence (O60563 whole entry partner): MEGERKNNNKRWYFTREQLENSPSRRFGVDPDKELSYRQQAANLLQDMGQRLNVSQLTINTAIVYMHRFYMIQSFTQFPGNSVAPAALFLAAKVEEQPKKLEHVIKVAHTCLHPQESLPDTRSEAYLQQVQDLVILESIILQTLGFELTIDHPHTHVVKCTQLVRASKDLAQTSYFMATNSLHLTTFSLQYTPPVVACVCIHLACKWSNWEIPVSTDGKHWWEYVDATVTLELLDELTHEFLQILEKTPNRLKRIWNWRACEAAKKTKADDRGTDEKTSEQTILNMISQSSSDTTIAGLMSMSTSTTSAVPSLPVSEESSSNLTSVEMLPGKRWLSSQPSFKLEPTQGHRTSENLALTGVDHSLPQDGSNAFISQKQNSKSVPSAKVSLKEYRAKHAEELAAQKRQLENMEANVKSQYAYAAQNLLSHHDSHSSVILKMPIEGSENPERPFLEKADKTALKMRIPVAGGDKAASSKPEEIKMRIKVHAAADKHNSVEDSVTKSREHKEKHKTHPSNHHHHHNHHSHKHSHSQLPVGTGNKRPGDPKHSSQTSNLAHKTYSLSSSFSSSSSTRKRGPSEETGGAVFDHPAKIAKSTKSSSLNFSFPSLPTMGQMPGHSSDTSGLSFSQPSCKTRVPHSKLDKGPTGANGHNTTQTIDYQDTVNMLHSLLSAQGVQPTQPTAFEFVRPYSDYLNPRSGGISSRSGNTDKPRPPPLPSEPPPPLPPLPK

For orientation: IC50 means the concentration at which inhibition is half-maximal. Higher therefore signals weaker potency in that assay. For `C[C@@]1(O)CCC[C@H]1n1c(=O)ccc2cnc(NC3CCN(S(C)(=O)=O)CC3)nc21` (racemic) [Comp. 1, (±)-8-(2-hydroxy-2-methylcyclopentyl)-2-((1-(methylsulfonyl)piperidin-4-yl)amino)pyrido[2,3-d]pyrimidin-7(8H)-one, reference compound], the half-inhibitory concentration (IC50) in series [1] came to 0.0865 µM; in series [2] it was 0.0543 µM.
For `Cc1cc2cnc(NC3CCN(S(C)(=O)=O)CC3)nc2n([C@@H]2CCC[C@@]2(C)O)c1=O` (racemic) [Comp. 3, (±)-8-(2-hydroxy-2-methylcyclopentyl)-6-methyl-2-((1-(methylsulfonyl)piperidin-4-yl)amino)pyrido[2,3-d]pyrimidin-7(8H)-one, reference compound] the same measures were 0.0534 µM and 0.0385 µM.
For `[2H]C([2H])([2H])c1cc2cnc(NC3CCN(S(C)(=O)=O)CC3)nc2n(C2CCCC2(C)O)c1=O` (racemic) [Comp. 11, (±)-8-(2-hydroxy-2-methylcyclopentyl)-6-(methyl-d3)-2-((1-(methylsulfonyl)piperidin-4-yl)amino)pyrido[2,3-d]pyrimidin-7(8H)-one] the same measures were 0.0286 µM and 0.0213 µM.
Consider `[2H]C(F)(F)c1cc2cnc(NC3CCN(S(C)(=O)=O)CC3)nc2n(C2CCCC2(C)O)c1=O` (racemic) [Comp. 20, (±)-6-(difluoromethyl-d)-8-(2-hydroxy-2-methylcyclopentyl)-2-((1-(methylsulfonyl)piperidin-4-yl)amino)pyrido[2,3-d]pyrimidin-7(8H)-one], for which the IC50 in series [3] is 6 µM; in series [1], 0.125 µM; in series [2] it was 0.104 µM.
What is called half-life is the time needed for the level to fall by half in the phase considered. A high value points to slow decline. `C[C@@]1(O)CCC[C@H]1n1c(=O)ccc2cnc(NC3CCN(S(C)(=O)=O)CC3)nc21` [Comp. 6, (−)-8-(2-hydroxy-2-methylcyclopentyl)-2-((1-(methylsulfonyl)piperidin-4-yl)amino)pyrido[2,3-d]pyrimidin-7(8H)-one, reference compound]: the results for the IC50 in series [3], in series [1] and in series [2] were 6.45 µM, 0.0561 µM and 0.0393 µM, respectively. The half-life at 1 μM in series [4] (human, pH 7.4, t1/2 human) worked out at 693 min; in series [5] (mouse, pH 7.4, t1/2 mouse), 24.2 min.
For `[2H]C1(Nc2ncc3ccc(=O)n([C@@H]4CCC[C@@]4(C)O)c3n2)CCN(S(C)(=O)=O)CC1` [Comp. 47, (−)-8-((1R,2R)-2-hydroxy-2-methylcyclopentyl)-2-((1-(methylsulfonyl)piperidin-4-yl-4-d)amino)pyrido[2,3-d]pyrimidin-7(8H)-one], the half-life at 1 μM worked out at 990 min in series [4] (human, pH 7.4, t1/2 human) and 24.5 min in series [5] (mouse, pH 7.4, t1/2 mouse).
In the case of `[2H]C([2H])([2H])S(=O)(=O)N1CCC(Nc2ncc3ccc(=O)n([C@@H]4CCC[C@@]4(C)O)c3n2)CC1` [Comp. 55, (−)-8-((1R,2R)-2-hydroxy-2-methylcyclopentyl)-2-((1-((methyl-d3)sulfonyl)piperidin-4-yl)amino)pyrido[2,3-d]pyrimidin-7(8H)-one], the half-life at 1 μM in series [4] (human, pH 7.4, t1/2 human) was found to be 346 min.
`[2H]C1([2H])CN(S(C)(=O)=O)CC([2H])([2H])C1Nc1ncc2ccc(=O)n([C@@H]3CCC[C@@]3(C)O)c2n1` [Comp. 61, (−)-8-((1R,2R)-2-hydroxy-2-methylcyclopentyl)-2-((1-(methylsulfonyl)piperidin-4-yl-3,3,5,5-d4)amino)pyrido[2,3-d]pyrimidin-7(8H)-one] returned an IC50 in series [1] of 0.0692 µM. In addition, the half-life at 1 μM in series [4] (human, pH 7.4, t1/2 human) is 578 min; in series [5] (mouse, pH 7.4, t1/2 mouse) it was 23.5 min.
Consider `CCN1CCN(Cc2ccc(Nc3ncc(F)c(-c4cc(F)c5nc(C)n(C(C)C)c5c4)n3)nc2)CC1` [LY2835219], for which the IC50 in series [1] is 0.161 µM; in series [2], 4.37 µM.
Take `Cc1ncc2n1-c1ccc(Cl)cc1C(c1ccccc1F)=NC2` [Midazolam, reference compound]: the half-life at 1 μM in series [4] (pH 7.4) came out at 16.3 min; in series [5] (pH 7.4), 4.59 min.
